According to PubChem BioAssay AID1508612:

Assay: passive permeability, PAMPA, ADME assay (AID 1508612)
Conditions: pH 7.4, 30.0 min, 50.0 µM

| Structure (SMILES) | Papp [×10⁻⁶ cm/s] |
| --- | --- |
| CC(=O)c1ccc(N2CCN(C(=O)c3ccc4c(c3)CC(=O)N4)CC2)cc1 | 40.5 |
| O=C1Nc2ccccc2/C1=C\c1ccc(O)cc1 | 755 |
| CC(C)(N)CNC(=O)CC1CCC2(CC1)OOC1(O2)C2CC3CC(C2)CC1C3 (configuration not stated) | 488 |
| Cc1cccc(-c2[nH]c(C(C)(C)C)nc2-c2ccc3nccnc3c2)n1 | 512 |
| Cn1ccc2cc(-c3csc(N4CCC(C(N)=O)CC4)n3)ccc21 | 823 |
| CC[C@@H](CO)NC(=O)[C@@H]1C=C2c3cccc4c3c(cn4C)C[C@H]2N(C)C1 | 396 |
| C[C@@H]1C(=O)O[C@H]2[C@H]1CC[C@@]1(C)Cc3sc(NS(=O)(=O)Cc4ccccc4)nc3[C@@H](C)[C@H]21 | > 1000 |
| COCC(C)Nc1ncnc2c1cnn2-c1ccc(C)c(C)c1 (configuration not stated) | 690 |
| COc1ccccc1Nc1ccnc(N2CCN(C(=O)c3ccc(C)cc3)CC2)n1 | > 1000 |
| CCOc1ccc(CCNC(=O)c2cc3ncccc3n2Cc2cccc(C)c2)cc1OCC | > 1000 |
| COc1ccc(CN2CCc3nc(N4CCN(c5ccc(F)cc5)CC4)ncc3C2)c(OC)c1OC | > 1000 |
| Nc1ccc(S(=O)(=O)Nc2cnccc2C(=O)Nc2nc(-c3ccccc3)cs2)cc1 | 101 |
| Cc1ccc(S(=O)(=O)N2CCN(C(=O)c3cc4c(s3)CCC4)CC2)cc1 | > 1000 |
| CC[C@@H]1C(=O)N(C)c2cnc(Nc3ccc(C(=O)NC4CCN(C)CC4)cc3OC)nc2N1C1CCCC1 | 561 |
| CCc1cc(Cl)c(OC)c(C(=O)NC[C@@H]2CCCN2CC)c1O | > 1000 |
| Cn1nnnc1Sc1ncnc2scc(-c3cc4ccccc4o3)c12 | 936 |
| CCN1CCN(C(=O)CCCn2nc(C)c3c(C)n(-c4ccc(C)cc4)nc3c2=O)CC1 | 175 |
| CC(C)(C)n1nc(-c2ccc(Cl)cc2)c2c(N)ncnc21 | > 1000 |
| Cc1ccc(S(=O)(=O)N[C@@H](Cc2ccccc2)C(=O)CCl)cc1 | 323 |
| Cc1cccc(C)c1Nc1c(-c2cccs2)nc2ncccn12 | 969 |
| C#CCNC(=O)c1nc(-c2cccnc2)c2ccccn12 | 507 |
| Fc1cc(Nc2nc(-c3ccncc3)nc3ccccc23)ccc1N1CCCC1 | 110 |
| NCC(=O)Nc1cccc(-c2nn3c(=O)cc(N4CCNCC4)nc3s2)c1 | < 1 |
| Cc1ccc(-n2nc(C)c3c(-c4ccc(O)c(O)c4)c(C#N)c(N)nc32)cc1C | 187 |
| CC(=O)N1CCN(c2ccc(OCc3nn(C)c(C)c3-c3cccc4c(CCCOc5cccc6ccccc56)c(C(=O)O)n(Cc5cccnc5)c34)cc2)CC1 | 253 |
| COc1cc(-c2c(C#N)c(N)nc3c2c(C)nn3-c2ccc(F)cc2)ccc1O | > 1000 |

| Structure (SMILES) | Papp [×10⁻⁶ cm/s] |
| --- | --- |
| CC1=C(C(=O)Nc2nncs2)C(c2ccccc2Br)N=C(Nc2nc3ccccc3o2)N1 (configuration not stated) | 128 |
| COc1ccc(CN(C2CCCCC2C)S(=O)(=O)c2ccc(S(=O)(=O)N(C)C)cc2)cc1OC (configuration not stated) | 18.8 |
| O=C(O)CCNc1cc(N2CCc3ccccc3CC2)nc(-c2ccccn2)n1 | < 1 |
| CCOc1cc(CNc2ccc(O)cc2)ccc1OCc1ccc(Cl)cc1 | < 1 |
| COc1ccc(-n2nc(C3CCCN(C(=O)c4cccc(OC)c4)C3)[nH]c2=O)cc1 (configuration not stated) | 436 |
| Cc1nnc2n1-c1ccc(Cl)cc1C(c1ccccc1)=NC2 | 125 |
| COc1cc2c(cc1-c1c(C)noc1C)ncc1[nH]c(=O)n([C@H](C)c3ccccn3)c12 | 858 |
| CCc1oc2ccccc2c1C(=O)c1cc(I)c(O)c(I)c1 | 67.7 |
| Cc1cc(NS(=O)(=O)c2ccc3c(c2)CCC(=O)N3)ccc1F | 412 |
| CC1(C)C(=O)NC2=C1C(=O)C(=O)c1ccccc12 | 12.5 |
| Cc1ccc(NC(=O)c2ccncc2NS(=O)(=O)c2ccc(C)cc2)cc1 | 245 |
| COc1cccc(CN2CCCC(c3nc(-c4ccncc4)ncc3-c3ccccc3)C2)c1O (configuration not stated) | > 1000 |
| Cc1ccc(S(=O)(=O)Nc2ccccc2C(=O)Nc2nc(-c3ccccc3)co2)cc1 | 358 |
| Cc1ccccc1-c1nc(NCc2cccs2)c2ccccc2n1 | 406 |
| COc1cc(Nc2nc(-c3ccncc3)nc3ccccc23)ccc1F | 445 |
| Cc1ccc(NC(=O)c2c(N3CCCC3=O)c3cc(C)ccc3n2C)c(C)c1 | > 1000 |
| CCOc1ccccc1N(CC(=O)N1CCOCC1)S(=O)(=O)c1ccc(SC)cc1 | 550 |
| CC(C)N(CCCNC(=O)Nc1ccc(C(C)(C)C)cc1)C[C@H]1O[C@@H](n2ccc3c(N)ncnc32)[C@H](O)[C@@H]1O | 10.7 |
| Cc1nsc(N)c1C(=O)N(C)CCOc1ccccc1Cl | 389 |
| CN1C(=O)C(=O)N2C(=C[C@]3(c4c[nH]c5ccccc45)c4ccccc4N[C@H]23)C1=O | 209 |
| Fc1ccc(Nc2nc(C3=CCNCC3)nc3ccccc23)cc1F | > 1000 |
| C#CCNC(=O)c1nc(-c2ccc(Cl)nc2)c2ccccn12 | 802 |
| Cc1cc(-c2nnc3n2CCCCC3)c(C)n1-c1ccc(Cl)cc1 | > 1000 |
| CN(Cc1cnc2nc(N)nc(N)c2n1)c1ccc(C(=O)N[C@@H](CCC(=O)O)C(=O)O)cc1 | 5.39 |
| O=C(NCc1cccnc1)c1nc(-c2ccc(Cl)nc2)c2cnccn12 | 238 |
| O=C(O)CCNc1cc(N2CCc3ccccc3CC2)nc(-c2cccnc2)n1 | 56.4 |
